Measurements published in PubChem BioAssay (NCI).
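Results reflect a 48-hour exposure of cells in 96-well plates to compound at five concentrations. GI50 is the concentration that inhibits growth by half. At the TGI there is no net growth.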

How the values were obtained:
Experiment in all cases: inhibition of tumour cell growth, NCI panel, 48 h
RPMI-8226 leukemia = test system: RPMI-8226 leukemia
K-562 leukemia = test system: K-562 leukemia
786-0 renal = test system: 786-0 renal
OVCAR-8 ovarian = test system: OVCAR-8 ovarian
NCI-H226 lung = test system: NCI-H226 lung
SK-MEL-2 melanoma = test system: SK-MEL-2 melanoma
CCRF-CEM leukemia = test system: CCRF-CEM leukemia
NCI-H522 lung = test system: NCI-H522 lung
PC-3 prostate = test system: PC-3 prostate
COLO 205 colon = test system: COLO 205 colon

Row | SMILES | TGI (RPMI-8226 leukemia) | TGI (K-562 leukemia) | TGI (786-0 renal) | TGI (OVCAR-8 ovarian) | TGI (NCI-H226 lung) | TGI (SK-MEL-2 melanoma) | GI50 (RPMI-8226 leukemia) | GI50 (CCRF-CEM leukemia) | TGI (CCRF-CEM leukemia) | GI50 (K-562 leukemia) | TGI (NCI-H522 lung) | GI50 (NCI-H226 lung) | GI50 (786-0 renal) | GI50 (NCI-H522 lung) | GI50 (OVCAR-8 ovarian) | GI50 (PC-3 prostate) | TGI (PC-3 prostate) | GI50 (SK-MEL-2 melanoma) | TGI (COLO 205 colon) | GI50 (COLO 205 colon)
1 | CC(C)=Cc1cc(C(=O)Nc2ccc(Cl)c(Cl)c2)nc(N)n1 | > 100 µM | > 100 µM | > 100 µM | > 100 µM | > 100 µM | > 100 µM |  |  |  |  |  |  |  |  |  |  |  |  |  | 
2 | O=C(/C=C\c1ccc(Cl)c(Cl)c1)c1ccc(Cl)cc1Cl | 41.4 µM | 26 µM | 39.6 µM | 38 µM | 21.2 µM | 41.9 µM | 2350 nM | 4.62 µM | 64.4 µM | 1610 nM | 32.6 µM | 6.39 µM |  |  |  |  |  |  |  | 
3 | COc1cc(/C=C2\CN(S(=O)(=O)c3ccccc3)C/C(=C\c3cc(CN4CCCC4)c(O)c(OC)c3)C2=O)cc(CN2CCCC2)c1O | 5.03 µM |  | 4.32 µM | > 100 µM |  | 5.02 µM | 1550 nM |  |  |  | 2.11 µM |  | 1.86 µM | 0.318 µM | 1.31 µM | 1410 nM | 3.91 µM | 2.03 µM |  | 
4 | CC(C)OP(=O)(OC(C)C)C(=NCCN=C(NNc1ccc([N+](=O)[O-])cc1)P(=O)(OC(C)C)OC(C)C)NNc1ccc([N+](=O)[O-])cc1 | > 100 µM | > 100 µM | > 100 µM | > 100 µM | 93.3 µM | 53 µM |  |  | > 100 µM |  |  |  |  |  |  |  |  |  | 29.6 µM | 
5 | COc1cc2c(c(OC)c1OC)-c1ccc(OC)c(=O)cc1C(NC(=O)c1ccc(N=[N+]=[N-])cc1)CC2 (stereo not drawn) | 4.41 µM | > 39.2 µM | > 100 µM | 1.02 µM | 3.78 µM |  |  |  | > 24.5 µM |  | 0.0387 µM |  |  |  |  |  |  |  | 0.0627 µM | 
6 | CC(=O)OC1COC(n2ccc3cc(Br)c([N+](=O)[O-])cc32)C(OC(C)=O)C1OC(C)=O (stereo not drawn) | > 100 µM | > 100 µM | 97.9 µM | 82.1 µM | 43.9 µM |  |  |  | 81.7 µM |  |  |  |  |  |  |  |  |  | 50 µM | 
7 | Cn1c2ccccc2c2cc(-c3ccccc3)c3c(c21)C(=O)c1ccccc1C3=O | 25.3 µM | 73.1 µM | 35.7 µM | 68.1 µM | 84 µM | 43.4 µM |  |  | 33 µM |  | 48.4 µM |  |  |  |  |  |  |  | 94.3 µM | 
8 | CC(=O)/C(=C\c1cccc([N+](=O)[O-])c1)C(=O)Nc1ccccc1C | > 100 µM | > 100 µM | > 100 µM |  | > 100 µM | > 100 µM |  |  | > 100 µM |  | > 100 µM |  |  |  |  |  |  |  |  | 
9 | Clc1ccc(C(c2ccc(Cl)cc2)c2ccccn2)cc1 | 84.5 µM | 55.6 µM | 30.6 µM | 33.8 µM | 31.9 µM | 35 µM |  |  | 48.1 µM |  | 48.6 µM |  |  |  |  |  |  |  |  | 
10 | Cc1cccc(NC(=O)Cn2cnc3sc(C(=O)OC(C)C)c(C)c3c2=O)c1 | > 50 µM | > 50 µM | > 50 µM | > 50 µM |  | > 50 µM | > 50000 nM | > 50 µM | > 50 µM | > 50000 nM | 44.6 µM |  | 32.9 µM | 12.3 µM | 17.4 µM | > 50000 nM | > 50 µM | 16 µM | > 50 µM | > 50 µM
11 | Cc1ccc(S(=O)(=O)Nc2ccccc2C(=O)c2ccc(C)c(C)c2)cc1 | > 100 µM |  | > 100 µM | > 100 µM | > 100 µM | > 100 µM |  |  |  |  | > 100 µM |  |  |  |  |  | > 100 µM |  | > 100 µM | 
